These results are taken from patent US11613527B2, “Enzyme inhibitors” (KalVista Pharmaceuticals Limited, priority 2019, dated 2023).

SMILES strings stand for the structures. Converted amounts (≈) assume the structure as drawn.

Data set [1] addresses Human plasma kallikrein (Homo sapiens (Human), UniProt P03952). Briefly: Determination of the IC50 for plasma kallikrein (fluorogenic substrate H-DPro-Phe-Arg-AFC). The settings on record: class symbols A-D, read-out: IC50 (human PKal). The data set is classed as biochemical. Put shortly: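 IC50 values come from initial rates, monitored as the change in absorbance at 410 nm, of residual enzyme activity. Test compound was present at various concentrations with the fluorogenic substrate H-DPro-Phe-Arg-AFC, and the reaction was run at 25° C.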

Data set [2] addresses Human FXIa (Homo sapiens (Human), UniProt P03951). The experiment in a line: Determination of the % inhibition for FXIa (fluorogenic substrate Z-Gly-Pro-Arg-AFC; 40 μM or IC50). The data set is classed as biochemical. The procedure, abridged: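 Inhibition measured from initial reaction rate, followed as absorbance change at 410 nm, with substrate Z-Gly-Pro-Arg-AFC at 25 °C. Compound tested at a single 40 μM dose for percent inhibition, or across several concentrations to derive IC50 against human FXIa.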

Data set [3] has as its target Human KLK1 (Homo sapiens (Human), UniProt P06870). The experiment in a line: Determination of the IC50 for KLK1 (fluorogenic substrate H-DVal-Leu-Arg-AFC). The data set is classed as biochemical. Put shortly: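 Inhibition read as initial rate via optical absorbance change at 410 nm, giving IC50. Reactions combined human KLK1, the substrate H-DVal-Leu-Arg-AFC and varied compound concentrations at 25° C.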

The nature of data set [4]: Solubility after 24 hrs in Fasted State Simulated Intestinal Fluid (FaSSIF). The settings on record: Fasted State Simulated Intestinal Fluid (FaSSIF), thermodynamic from solid, 24 hrs at 37° C., nominal concentration 1 mg/mL (as free base). The class given is physicochemical. As for the experimental part:
Selected compounds were further screened for solubility in Fasted State Simulated Intestinal Fluid (FaSSIF).
Approximately 1 mg of test compound is accurately weighed into a 2 mL vial. Volumes of the FaSSIF solution (pre-heated to 37° C.) were added to a vial to give a nominal concentration of 1 mg/mL (as free base). The FaSSIF solution was prepared on the day of use. The samples were vortexed before being placed in a Titramax 1000 shaker for 24 hrs at 37° C. and approximately 500 rpm. The samples were transferred to eppendorf tubes and centrifuged at 15,000 g (r.c.f.) for 10 min at 37° C. and analysed for concentration of test compound by LCMS.

Chain of Human plasma kallikrein (P03952 391-638): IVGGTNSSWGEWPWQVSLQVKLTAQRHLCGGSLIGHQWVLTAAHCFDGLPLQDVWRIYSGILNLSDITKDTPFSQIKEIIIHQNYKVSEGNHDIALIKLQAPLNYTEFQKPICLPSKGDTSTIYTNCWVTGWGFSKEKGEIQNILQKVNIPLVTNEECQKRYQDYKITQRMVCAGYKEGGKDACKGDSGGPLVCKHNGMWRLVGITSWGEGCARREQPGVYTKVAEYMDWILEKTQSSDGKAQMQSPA
Chain of Human plasma kallikrein (P03952 20-390 partner): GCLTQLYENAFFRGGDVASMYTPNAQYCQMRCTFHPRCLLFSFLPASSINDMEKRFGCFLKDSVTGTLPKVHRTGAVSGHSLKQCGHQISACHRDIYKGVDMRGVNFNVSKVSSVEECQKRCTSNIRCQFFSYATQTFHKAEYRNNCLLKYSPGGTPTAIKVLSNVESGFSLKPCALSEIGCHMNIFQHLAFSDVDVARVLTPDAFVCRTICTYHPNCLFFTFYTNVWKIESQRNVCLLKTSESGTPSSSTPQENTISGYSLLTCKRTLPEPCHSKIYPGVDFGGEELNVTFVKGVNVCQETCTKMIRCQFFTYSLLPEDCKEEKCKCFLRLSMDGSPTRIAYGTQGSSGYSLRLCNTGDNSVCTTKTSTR
Chain of Human KLK1 (P06870 25-262): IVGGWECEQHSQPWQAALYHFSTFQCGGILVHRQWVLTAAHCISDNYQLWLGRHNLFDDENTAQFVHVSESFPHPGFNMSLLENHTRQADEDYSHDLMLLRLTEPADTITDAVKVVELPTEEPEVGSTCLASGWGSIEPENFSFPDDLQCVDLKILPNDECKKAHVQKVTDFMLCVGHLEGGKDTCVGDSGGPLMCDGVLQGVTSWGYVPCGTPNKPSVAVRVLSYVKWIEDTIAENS
Chain of Human FXIa (P03951 388-625): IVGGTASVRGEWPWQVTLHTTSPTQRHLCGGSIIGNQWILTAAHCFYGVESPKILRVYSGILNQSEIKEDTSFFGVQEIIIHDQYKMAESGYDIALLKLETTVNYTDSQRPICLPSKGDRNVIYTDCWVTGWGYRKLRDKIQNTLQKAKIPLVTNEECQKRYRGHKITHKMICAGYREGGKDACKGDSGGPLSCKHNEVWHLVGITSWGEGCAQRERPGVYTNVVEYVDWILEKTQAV
Chain of Human FXIa (P03951 19-387 partner): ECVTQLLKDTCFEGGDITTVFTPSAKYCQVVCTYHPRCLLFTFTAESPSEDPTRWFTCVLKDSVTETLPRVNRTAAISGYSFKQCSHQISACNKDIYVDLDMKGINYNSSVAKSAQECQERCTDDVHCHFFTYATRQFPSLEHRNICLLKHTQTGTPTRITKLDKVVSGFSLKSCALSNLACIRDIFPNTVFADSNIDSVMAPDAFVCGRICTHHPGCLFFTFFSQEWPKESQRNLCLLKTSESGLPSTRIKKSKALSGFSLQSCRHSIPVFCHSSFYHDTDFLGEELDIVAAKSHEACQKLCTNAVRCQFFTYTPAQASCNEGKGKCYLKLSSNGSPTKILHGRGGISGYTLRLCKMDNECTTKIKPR

For `COCc1nn(Cc2ccc3c(c2)CCN(C)C3)cc1C(=O)NCc1c(-n2cnc(C(F)F)n2)ccc(OC)c1F` [Example 41, N-({6-[3-(difluoromethyl)-1,2,4-triazol-1-yl]-2-fluoro-3-methoxyphenyl}methyl)-3-(methoxymethyl)-1-[(2-methyl-3,4-dihydro-1H-isoquinolin-6-yl)methyl]pyrazole-4-carboxamide], the IC50 in data set [1] is under 0.01 µM; in data set [2], over 40 µM; in data set [3] it was over 40 µM. For the same compound, in data set [4], the solubility at 24 h is over 1000 µg/mL.

For the compound `COCc1nn(Cc2ccc3c(c2)CCN(C)C3)cc1C(=O)NCc1c(-n2cnc(C(F)(F)F)n2)ccc(OC)c1F` [Example 42, N-({2-fluoro-3-methoxy-6-[3-(trifluoromethyl)-1,2,4-triazol-1-yl]phenyl}methyl)-3-(methoxymethyl)-1-[(2-methyl-3,4-dihydro-1H-isoquinolin-6-yl)methyl]pyrazole-4-carboxamide], the IC50 is under 0.01 µM in data set [1], over 40 µM in data set [2] and over 40 µM in data set [3]. Also, the concentration in solution in data set [4] (solubility at 24 h) came to 870 µg/mL (≈ 1480 µM).

With `COCc1nn(Cc2ccc3c(c2)CCN(C)C3)cc1C(=O)NCc1c(-n2ccc(C#N)n2)ccc(OC)c1F` [Example 43, N-{[6-(3-cyanopyrazol-1-yl)-2-fluoro-3-methoxyphenyl]methyl}-3-(methoxymethyl)-1-[(2-methyl-3,4-dihydro-1H-isoquinolin-6-yl)methyl]pyrazole-4-carboxamide], the IC50 in data set [1] is under 0.01 µM; in data set [2], 31.8 µM; in data set [3], over 40 µM. In data set [4], the solubility at 24 h is 800 µg/mL (≈ 1470 µM).

With `COCc1nn(Cc2ccc3c(c2)CCN(C(C)C)C3)cc1C(=O)NCc1c(-n2cnc(C(F)F)n2)ccc(OC)c1F` [Example 44, N-({6-[3-(difluoromethyl)-1,2,4-triazol-1-yl]-2-fluoro-3-methoxyphenyl}methyl)-1-[(2-isopropyl-3,4-dihydro-1H-isoquinolin-6-yl)methyl]-3-(methoxymethyl)pyrazole-4-carboxamide], the IC50 in data set [1] was under 0.01 µM; in data set [2] it was over 40 µM; in data set [3] it was over 40 µM. This compound came in with a solubility at 24 h in data set [4] of over 1000 µg/mL.

With `COCc1nn(Cc2ccc3c(c2)CCN(C(C)C)C3)cc1C(=O)NCc1c(-n2cnc(C(F)(F)F)n2)ccc(OC)c1F` [Example 45, N-({2-fluoro-3-methoxy-6-[3-(trifluoromethyl)-1,2,4-triazol-1-yl]phenyl}methyl)-1-[(2-isopropyl-3,4-dihydro-1H-isoquinolin-6-yl)methyl]-3-(methoxymethyl)pyrazole-4-carboxamide], the figures for the IC50 in data set [1], in data set [2] and in data set [3] were under 0.01 µM, over 40 µM and over 40 µM, respectively. The amount in solution in data set [4] (solubility at 24 h) came to 840 µg/mL (≈ 1360 µM).

Turning to `CCN1CCc2cc(Cn3cc(C(=O)NCc4c(-n5cnc(C(F)F)n5)ccc(OC)c4F)c(COC)n3)ccc2C1` [Example 50, N-({6-[3-(difluoromethyl)-1,2,4-triazol-1-yl]-2-fluoro-3-methoxyphenyl}methyl)-1-[(2-ethyl-3,4-dihydro-1H-isoquinolin-6-yl)methyl]-3-(methoxymethyl)pyrazole-4-carboxamide], the IC50 in data set [1] was under 0.01 µM; in data set [2], over 40 µM; in data set [3], over 40 µM. The concentration in solution in data set [4] (solubility at 24 h) was 720 µg/mL (≈ 1230 µM).

Turning to `CCN1CCc2cc(Cn3cc(C(=O)NCc4c(-n5cnc(C(F)(F)F)n5)ccc(OC)c4F)c(COC)n3)ccc2C1` [Example 51, 1-[(2-ethyl-3,4-dihydro-1H-isoquinolin-6-yl)methyl]-N-({2-fluoro-3-methoxy-6-[3-(trifluoromethyl)-1,2,4-triazol-1-yl]phenyl}methyl)-3-(methoxymethyl)pyrazole-4-carboxamide], the values for the IC50 in data set [1], in data set [2] and in data set [3] were under 0.01 µM, over 40 µM and over 40 µM, respectively. This compound registered a solubility at 24 h in data set [4] of 770 µg/mL (≈ 1280 µM).

On to `COCc1nn(Cc2cnc3c(c2)CCN(C(C)C)C3)cc1C(=O)NCc1c(-n2cc(C)nn2)ccc(OC)c1F` [Example 117, N-{[2-fluoro-3-methoxy-6-(4-methyl-1,2,3-triazol-1-yl)phenyl]methyl}-1-[(7-isopropyl-6,8-dihydro-5H-1,7-naphthyridin-3-yl)methyl]-3-(methoxymethyl)pyrazole-4-carboxamide], for which the IC50 in data set [1] was 0.01 to 0.03 µM; in data set [2], over 40 µM; in data set [3], over 40 µM. In data set [4], the concentration in solution (solubility at 24 h) was 900 µg/mL (≈ 1600 µM).

`COCc1nn(Cc2cc3c(cc2F)CCN(C)C3)cc1C(=O)NCc1c(-n2cc(C)nn2)ccc(OC)c1F` [Example 118, 1-[(6-fluoro-2-methyl-3,4-dihydro-1H-isoquinolin-7-yl)methyl]-N-{[2-fluoro-3-methoxy-6-(4-methyl-1,2,3-triazol-1-yl)phenyl]methyl}-3-(methoxymethyl)pyrazole-4-carboxamide]: the results for the IC50 in data set [1], in data set [2] and in data set [3] were under 0.01 µM, 9.9 µM and over 40 µM, respectively. For the same compound, the solubility at 24 h in data set [4] was 930 µg/mL (≈ 1690 µM).

On to `COCc1nn(Cc2ccc3c(c2)CCN(C(C)C)CC3)cc1C(=O)NCc1c(-n2cc(C)nn2)ccc(OC)c1F` [Example 122, N-{[2-fluoro-3-methoxy-6-(4-methyl-1,2,3-triazol-1-yl)phenyl]methyl}-1-[(3-isopropyl-1,2,4,5-tetrahydro-3-benzazepin-7-yl)methyl]-3-(methoxymethyl)pyrazole-4-carboxamide], for which the IC50 is under 0.01 µM in data set [1], over 40 µM in data set [2] and over 40 µM in data set [3]. In addition, the solubility at 24 h in data set [4] is 730 µg/mL (≈ 1270 µM).

For the compound `COc1ccc(-n2cc(C)nn2)c(CNC(=O)c2cn(Cc3cc4n(n3)CCN(C)C4)nc2C(F)(F)F)c1F` [Example 125, N-{[2-fluoro-3-methoxy-6-(4-methyl-1,2,3-triazol-1-yl)phenyl]methyl}-1-({5-methyl-4H,6H,7H-pyrazolo[1,5-a]pyrazin-2-yl}methyl)-3-(trifluoromethyl)pyrazole-4-carboxamide], the IC50 in data set [1] was under 0.01 µM; in data set [2], over 40 µM; in data set [3] it was over 40 µM. This compound also had a solubility at 24 h in data set [4] of 650 µg/mL (≈ 1190 µM).

For the compound `COCc1nn(Cc2ccc3c(c2)COCC3)cc1C(=O)NCc1c(-n2cc(C)nn2)ccc(OC)c1F` [Example 133, 1-(3,4-dihydro-1H-2-benzopyran-7-ylmethyl)-N-{[2-fluoro-3-methoxy-6-(4-methyl-1,2,3-triazol-1-yl)phenyl]methyl}-3-(methoxymethyl)pyrazole-4-carboxamide], the IC50 in data set [1] is 0.1 to 1 µM; in data set [2] it was over 40 µM; in data set [3] it was over 40 µM. For the same compound, in data set [4], the concentration in solution (solubility at 24 h) came to 50 µg/mL (≈ 96 µM).

For the compound `COc1ccc(-n2cc(C)nn2)c(CNC(=O)c2cn(Cc3cc4n(n3)CCN(C)C4)nc2C(F)F)c1F` [Example 136, 3-(difluoromethyl)-N-{[2-fluoro-3-methoxy-6-(4-methyl-1,2,3-triazol-1-yl)phenyl]methyl}-1-({5-methyl-4H,6H,7H-pyrazolo[1,5-a]pyrazin-2-yl}methyl)pyrazole-4-carboxamide], the IC50 was under 0.01 µM in data set [1], over 40 µM in data set [2] and over 40 µM in data set [3]. Further, the concentration in solution in data set [4] (solubility at 24 h) came to 730 µg/mL (≈ 1380 µM).

Regarding `COc1ccc(-n2cc(C)nn2)c(CNC(=O)c2cn(Cc3cnc4c(c3)CCN(C)C4)nc2C(F)F)c1F` [Example 137, 3-(difluoromethyl)-N-{[2-fluoro-3-methoxy-6-(4-methyl-1,2,3-triazol-1-yl)phenyl]methyl}-1-[(7-methyl-6,8-dihydro-5H-1,7-naphthyridin-3-yl)methyl]pyrazole-4-carboxamide], the IC50 in data set [1] is under 0.01 µM; in data set [2] it was 21.9 µM; in data set [3] it was over 40 µM. The concentration in solution in data set [4] (solubility at 24 h) was 810 µg/mL (≈ 1500 µM).

Turning to `COc1ccc(-n2cc(C)nn2)c(CNC(=O)c2cn(Cc3ccc4c(n3)CCN(C)C4)nc2C(F)(F)F)c1F` [Example 138, N-{[2-fluoro-3-methoxy-6-(4-methyl-1,2,3-triazol-1-yl)phenyl]methyl}-1-[(6-methyl-7,8-dihydro-5H-1,6-naphthyridin-2-yl)methyl]-3-(trifluoromethyl)pyrazole-4-carboxamide], the IC50 in data set [1] is 0.01 to 0.03 µM; in data set [2], over 40 µM; in data set [3], over 40 µM. Besides, the solubility at 24 h in data set [4] is over 1000 µg/mL.

Consider `COCc1nc(C(=O)NCc2c(-n3cc(C)nn3)ccc(OC)c2F)cn1Cc1ccc2c(c1)CN(C(C)C)C2` [Example 147, N-{[2-fluoro-3-methoxy-6-(4-methyl-1,2,3-triazol-1-yl)phenyl]methyl}-1-[(2-isopropyl-1,3-dihydroisoindol-5-yl)methyl]-2-(methoxymethyl)imidazole-4-carboxamide], for which the IC50 is 0.01 to 0.03 µM in data set [1], over 40 µM in data set [2] and over 40 µM in data set [3]. In data set [4], this compound yielded a solubility at 24 h of over 1000 µg/mL.

Usually IC50 stands for the concentration that gives 50% inhibition. What is called solubility is the dissolved amount per volume that the medium holds.
